According to the supplement of paper PMC11208160:

Assay: recombinant UMI read abundance after kanamycin selection (control-corrected) (log10(CPM+1)); higher = more efficient recombination; extreme values may be limits of the assay; sequences stand for … in AGTGCAGAGAAAATCGGCCAGTTTTCTCTGCCTGCAGTCCGCATGCCGTGGGACCCCTTGGGTTCTAACCTGTTGCCTAGATTTATGCAGCGGACTGCCTTTCTCCCAAAGTGATAAACCGG…AGGTTGGTTTCACT; site = the 11-nt donor
How it was run: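 Under IPTG (0.07 mM) plus kanamycin, or without selection, Escherichia coli carrying a UMI-tagged donor and donor-binding-loop pair library and a target plasmid for the IS621 bridge recombinase were plated in two replicates. Recombinant UMIs were PCR-amplified across the donor–target junction and sequenced. Counts were converted to CPM, averaged over replicates, scaled by control-derived factors and reported as log10(CPM+1).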
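Further: IS621 bridge recombinase in Escherichia coli cells against a fixed T5 target plasmid.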

| Sequence | recombinant UMI read abundance (log10) |
| --- | --- |
| TCCAGCACATGGACCGGTTTTCCCGGTAATCCGTATTTGTG (site TCCAGCACTCA) | 0.0248 |
| TCCAGCGCATGGACCGGTTTTCCCGGTAATCCGTATTTGCG (site TCCAACGCTCG) | 0 |
| TCCAGCGCATGGACCGGTTTTCCCGGTAATCCGTATTTGCG (site TCCACCGCTCG) | 0.0119 |
| TCCAGCGCATGGACCGGTTTTCCCGGTAATCCGTATTTGCG (site TCCAGCGCTCG) | 0.0428 |
| TCCAGCGCATGGACCGGTTTTCCCGGTAATCCGTATTTGCG (site TCCATCGCTCG) | 0.00909 |
| TCCAGTTCATGGACCGGTTTTCCCGGTAATCCGTATTTGCC (site TCCAATTCTGG) | 0 |
| TCCAGTTCATGGACCGGTTTTCCCGGTAATCCGTATTTGCC (site TCCACTTCTGG) | 0 |
| TCCAGTTCATGGACCGGTTTTCCCGGTAATCCGTATTTGCC (site TCCAGTTCTGG) | 0 |
| TCCAGTTCATGGACCGGTTTTCCCGGTAATCCGTATTTGCC (site TCCATTTCTGG) | 0 |
| TCCATAACATGGACCGGTTTTCCCGGTAATCCGTATTTGGG (site TCCATAACTCC) | 0.008 |
| TCCATGCCATGGACCGGTTTTCCCGGTAATCCGTATTTGAT (site TCCATGCCTAT) | 0 |
| TCCATTCCATGGACCGGTTTTCCCGGTAATCCGTATTTGAT (site TCCATTCCTAT) | 0 |
| TCCCATACATGGACCGGTTTTCCCGGTAATCCGTATTTGCG (site TCCCATACTCG) | 0.00752 |
| TCCCATTCATGGACCGGTTTTCCCGGTAATCCGTATTTGCC (site TCCAATTCTGG) | 0 |
| TCCCATTCATGGACCGGTTTTCCCGGTAATCCGTATTTGCC (site TCCCATTCTGG) | 0 |
| TCCCATTCATGGACCGGTTTTCCCGGTAATCCGTATTTGCC (site TCCGATTCTGG) | 0 |
| TCCCATTCATGGACCGGTTTTCCCGGTAATCCGTATTTGCC (site TCCTATTCTGG) | 0 |
| TCCCCAACATGGACCGGTTTTCCCGGTAATCCGTATTTGTT (site TCCCCAACTAA) | 0.0153 |
| TCCCGCTCATGGACCGGTTTTCCCGGTAATCCGTATTTGCC (site TCCCGCTCTGG) | 0 |
| TCCCTGACATGGACCGGTTTTCCCGGTAATCCGTATTTGGA (site TCCCTGACTTC) | 0.0122 |
| TCCGATTCATGGACCGGTTTTCCCGGTAATCCGTATTTGAG (site TCCGATTCTCT) | 0.00583 |
| TCCGATTCATGGACCGGTTTTCCCGGTAATCCGTATTTGCC (site TCCAATTCTGG) | 0 |
| TCCGATTCATGGACCGGTTTTCCCGGTAATCCGTATTTGCC (site TCCCATTCTGG) | 0 |
| TCCGATTCATGGACCGGTTTTCCCGGTAATCCGTATTTGCC (site TCCGATTCTGG) | 0 |
| TCCGATTCATGGACCGGTTTTCCCGGTAATCCGTATTTGCC (site TCCTATTCTGG) | 0 |

| Sequence | recombinant UMI read abundance (log10) |
| --- | --- |
| TCCGCAGCATGGACCGGTTTTCCCGGTAATCCGTATTTGAA (site TCCGCAGCTTT) | 0.0198 |
| TCCGCATCATGGACCGGTTTTCCCGGTAATCCGTATTTGGG (site TCCGCATCTCC) | 0.00533 |
| TCCGCGACATGGACCGGTTTTCCCGGTAATCCGTATTTGTA (site TCCGCGACTTA) | 0.0159 |
| TCCGCTACATGGACCGGTTTTCCCGGTAATCCGTATTTGTC (site TCCGCTACTGA) | 0 |
| TCCGGGCCATGGACCGGTTTTCCCGGTAATCCGTATTTGGG (site TCCGGGCCTCC) | 0.0269 |
| TCCTACGCATGGACCGGTTTTCCCGGTAATCCGTATTTGAA (site TCCTACGCTTT) | 0.0256 |
| TCCTACTCATGGACCGGTTTTCCCGGTAATCCGTATTTGCA (site TCATACTCTTG) | 0 |
| TCCTACTCATGGACCGGTTTTCCCGGTAATCCGTATTTGCA (site TCCTACTCTTG) | 0 |
| TCCTACTCATGGACCGGTTTTCCCGGTAATCCGTATTTGCA (site TCGTACTCTTG) | 0 |
| TCCTACTCATGGACCGGTTTTCCCGGTAATCCGTATTTGCA (site TCTTACTCTTG) | 0 |
| TCCTAGGCATGGACCGGTTTTCCCGGTAATCCGTATTTGGT (site TACTAGGCTAC) | 0.0272 |
| TCCTAGGCATGGACCGGTTTTCCCGGTAATCCGTATTTGGT (site TCCTAGGCTAC) | 0.0125 |
| TCCTAGGCATGGACCGGTTTTCCCGGTAATCCGTATTTGGT (site TGCTAGGCTAC) | 0.0178 |
| TCCTAGGCATGGACCGGTTTTCCCGGTAATCCGTATTTGGT (site TTCTAGGCTAC) | 0.0363 |
| TCCTGCCCATGGACCGGTTTTCCCGGTAATCCGTATTTGCT (site TCCTGCCCTAG) | 0 |
| TCCTGGCCATGGACCGGTTTTCCCGGTAATCCGTATTTGTG (site TCCTGGCCTCA) | 0.00405 |
| TCCTGTTCATGGACCGGTTTTCCCGGTAATCCGTATTTGTC (site TCCTGTTCTGA) | 0 |
| TCCTTCTCATGGACCGGTTTTCCCGGTAATCCGTATTTGGG (site ACCTTCTCTCC) | 0.0101 |
| TCCTTCTCATGGACCGGTTTTCCCGGTAATCCGTATTTGGG (site CCCTTCTCTCC) | 0.00366 |
| TCCTTCTCATGGACCGGTTTTCCCGGTAATCCGTATTTGGG (site GCCTTCTCTCC) | 0.104 |
| TCCTTCTCATGGACCGGTTTTCCCGGTAATCCGTATTTGGG (site TCCTTCTCTCC) | 0.0162 |
| TCCTTTACATGGACCGGTTTTCCCGGTAATCCGTATTTGTT (site TCCTTTACTAA) | 0.0163 |
| TCGAACGCATGGACCGGTTTTCCCGGTAATCCGTATTTGCG (site TCGAACGCTCG) | 0.00434 |
| TCGAAGACATGGACCGGTTTTCCCGGTAATCCGTATTTGCA (site AGGAAGACTTG) | 0.13 |
| TCGAAGACATGGACCGGTTTTCCCGGTAATCCGTATTTGCA (site TCGAAGACTTG) | 1.88 |

| Sequence | recombinant UMI read abundance (log10) |
| --- | --- |
| TCGAATACATGGACCGGTTTTCCCGGTAATCCGTATTTGCA (site TAGAATACTTG) | 0.211 |
| TCGAATACATGGACCGGTTTTCCCGGTAATCCGTATTTGCA (site TCGAATACTTG) | 0 |
| TCGAATACATGGACCGGTTTTCCCGGTAATCCGTATTTGCA (site TGGAATACTTG) | 0.0214 |
| TCGAATACATGGACCGGTTTTCCCGGTAATCCGTATTTGCA (site TTGAATACTTG) | 0 |
| TCGAATCCATGGACCGGTTTTCCCGGTAATCCGTATTTGAG (site TCGAATCCTCT) | 0.516 |
| TCGACACCATGGACCGGTTTTCCCGGTAATCCGTATTTGGA (site TCGACACCTTC) | 0.0336 |
| TCGACTTCATGGACCGGTTTTCCCGGTAATCCGTATTTGTG (site TCGACTTCTCA) | 0 |
| TCGATTACATGGACCGGTTTTCCCGGTAATCCGTATTTGGA (site TCGATTACTTC) | 0.277 |
| TCGCACACATGGACCGGTTTTCCCGGTAATCCGTATTTGCG (site TCGCACACTCG) | 0.00409 |
| TCGCCTACATGGACCGGTTTTCCCGGTAATCCGTATTTGTG (site TCGCCTACTCA) | 0.00919 |
| TCGGCTACATGGACCGGTTTTCCCGGTAATCCGTATTTGCC (site TCGGCTACTGG) | 0 |
| TCGGGCGCATGGACCGGTTTTCCCGGTAATCCGTATTTGTC (site TCGGGCGCTGA) | 2.19 |
| TCGGGTGCATGGACCGGTTTTCCCGGTAATCCGTATTTGGA (site TCGGGTGCTTC) | 0.157 |
| TCGGTTACATGGACCGGTTTTCCCGGTAATCCGTATTTGTT (site TCGGTTACTAA) | 0.835 |
| TCGTACTCATGGACCGGTTTTCCCGGTAATCCGTATTTGCA (site TCATACTCTTG) | 2.44 |
| TCGTACTCATGGACCGGTTTTCCCGGTAATCCGTATTTGCA (site TCCTACTCTTG) | 2.28 |
| TCGTACTCATGGACCGGTTTTCCCGGTAATCCGTATTTGCA (site TCGTACTCTTG) | 2.38 |
| TCGTACTCATGGACCGGTTTTCCCGGTAATCCGTATTTGCA (site TCTTACTCTTG) | 2.29 |
| TCGTCATCATGGACCGGTTTTCCCGGTAATCCGTATTTGAC (site TCGTCATCTGT) | 0 |
| TCGTCGCCATGGACCGGTTTTCCCGGTAATCCGTATTTGCA (site TCGTCGCCTTG) | 0.00504 |
| TCGTTAGCATGGACCGGTTTTCCCGGTAATCCGTATTTGTG (site ACGTTAGCTCA) | 0.00928 |
| TCGTTAGCATGGACCGGTTTTCCCGGTAATCCGTATTTGTG (site CCGTTAGCTCA) | 0 |
| TCGTTAGCATGGACCGGTTTTCCCGGTAATCCGTATTTGTG (site GCGTTAGCTCA) | 0.109 |
| TCGTTAGCATGGACCGGTTTTCCCGGTAATCCGTATTTGTG (site TCGTTAGCTCA) | 0.255 |
| TCGTTGTCATGGACCGGTTTTCCCGGTAATCCGTATTTGAA (site TCGTTGTCTTT) | 0.876 |
